Key:
Th17 differentiation = test: In vitro Th17 differentiation of splenic T cells (flow cytometry of IL-17A-producing CD4+ T cells); assay type: cell-based, murine; conditions: 1 or 5 μM during differentiation, 3 days
Method: Supplementary Figure 5. Verteporfin inhibits both Th17 differentiation and IL-17A production from in vitro differentiated Th17 cells. (A) Flow cytometry of IL-17A-producing CD4^+ T cells. Splenic T cells were co-treated with verteporfin (C1) (1 or 5 μM) during Th17 differentiation in vitro (for 3 days). (B) Flow cytometry of IL-17A-producing CD4^+ T cells. Murine in vitro differentiated Th17 cells were stimulated with PMA plus ionomycin and co-treated with verteporfin (C1) (1 or 5 μM) for 30 min. Data shown are representatives of two independent experiments.

EAE mice = test: MOG-induced EAE in wild-type C57BL/6J mice; assay type: in vivo; conditions: 0.4 μg/g body weight i.v. every 3 d
GLK kinase domain = molecular target: T1, GLK kinase domain (Homo sapiens, UniProt Q8IVH8); test: In vitro GLK kinase assay with kinase-dead PKC-θ (K409W) as substrate; assay type: biochemical; conditions: GST-tagged kinase-dead PKC-θ (K409W) substrate; Fig. 3B
T1 construct: Recombinant proteins of GLK kinase domain plus recombinant proteins of GST-tagged kinase-dead PKC-θ (K409W) were subjected to in vitro kinase assays; made in house; host or cells: Escherichia coli (BL21)
T1 sequence (Q8IVH8 16-273 limits assumed): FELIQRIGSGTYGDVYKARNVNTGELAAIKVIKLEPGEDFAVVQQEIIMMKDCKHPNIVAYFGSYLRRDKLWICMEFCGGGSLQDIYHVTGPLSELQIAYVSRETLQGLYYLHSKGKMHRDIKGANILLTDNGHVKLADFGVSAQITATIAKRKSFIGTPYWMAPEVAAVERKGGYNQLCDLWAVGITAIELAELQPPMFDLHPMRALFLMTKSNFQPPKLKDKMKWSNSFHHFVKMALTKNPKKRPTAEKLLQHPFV
Method: GLK kinase activity was determined by measuring the rate of ADP production in the in vitro kinase reaction using ADP-Glo Kinase Assay Kit (Promega). For the kinase reaction, recombinant proteins of the GLK kinase domain (1 μg) were incubated with recombinant proteins of kinase-dead PKC-θ (K409W; 0.15 μg) plus ATP (0.1 mM) or myelin basic protein (MilliporeSigma) plus ATP (0.1 mM) in kinase buffer [40 mM Tris-HCl (pH 7.5), 20 mM MgCl2, 0.1 mg/ml bovine serum albumin, 10 mM DTT, and 0.1 mM Na3VO4] for 30 min at room temperature.
Cell-based high‐throughput screening was conducted against a representative library of 100,000 molecules at ∼10 μM. The Chinese hamster ovary CHO-K1 (ATCC, CCL-61) cells expressing GLK and NF-κB luciferase (Luc) reporter were used. The reaction volume was 5 μl (500 cells) per well in 1536‐well plates. There was no positive control. This high‐throughput screening campaign was successful, with a determined Z' factor of 0.57 ∼ 0.60. […] At the end, 1392 compounds were identified for high inhibition (>80%) of the GLK-induced NF-κB luciferase activity of CHO‐GLK‐Luc cells. […]
(§1) Figure 3 Verteporfin (C1) blocks the AhR–ROR-γt complex in human autoimmune T cells. […] D) Quantification of the PLA signals shown in panel C. *P < 0.05, ***P < 0.001 (2-tailed Student’s t test).

murine primary T cells = test: Cell death of murine primary T cells (Fixable Viability Stain 780, flow cytometry); assay type: cell-based; conditions: 1 or 5 μM for 3 d, anti-CD3/CD28 stimulated
Method: Supplementary Figure 4. […] Murine primary T cells were stimulated with anti-CD3/CD28 and co-treated with verteporfin (C1) (1 or 5 μM) for 3 days. Dead T cells were labeled with Fixable Viability Stain 780 (FVS 780; BD Biosciences) and then determined by flow cytometry. Data shown are representatives of four independent experiments.

[1] = system: AhR–phosphorylated ROR-γt (Ser-489) complex; test: In situ proximity ligation assay in peripheral blood T cells from patients with SLE or RA; assay type: cell-based, human; conditions: 5 μM for 30 min; T cells from patients with SLE and RA
Method: (§2) Proximity ligation assays (PLAs) were performed using the Duolink In Situ Red Starter Kit (MilliporeSigma) according to the manufacturer’s instructions ([24]). Briefly, cells were incubated with rabbit or mouse primary antibodies for the AhR–plus–ROR-γt pair, followed by species-specific secondary antibodies that are conjugated with oligonucleotides (PLA probes). After ligation and amplification reactions for 100 min, the PLA signals from each pair of PLA probes in close proximity (<40 nm) were visualized as individual red dots by a confocal microscope (TCS SP5II; Leica Microsystems, Buffalo Grove, IL, USA). Red dots represent direct interaction signals.
(§3) After verification of the induction of GLK–AhR–ROR-γt–IL-17A signaling in human SLE T cells, we next studied whether the GLK–AhR–ROR-γt signaling is a therapeutic target for autoimmune diseases. Because there are no known commercial GLK inhibitors, we performed high-throughput screening of 101,200 compounds to identify GLK inhibitors using both cell-based luciferase reporter assays and in vitro kinase assays. […] Nevertheless, the IC50 of verteporfin for MAP4K3-GLK was the lowest one. […]
as §1

AhR–ROR-γt complex = test: as above; assay type: cell-based, human; conditions: 5 μM for 30 min; T cells from patients with SLE and RA
Method: as §2, §3, §1

verteporfin
Th17 differentiation (Th17 differentiation): inhibited | Th17 differentiation (Th17 differentiation; listed as Verteporfin): inhibits | disease severity (clinical score), EAE (EAE mice): significantly suppressed | serum levels of IL-6, TNF-α, IFN-γ, and IL-4, EAE (EAE mice): not significantly decreased | serum IL-17A levels, EAE (EAE mice; day 16): significantly suppressed | GLK kinase activity in vitro (GLK kinase domain): efficiently inhibited | cell death of murine primary T cells (murine primary T cells): did not enhance cell death | cell death of murine primary T cells (murine primary T cells; listed as Verteporfin): does not induce cell death | AhR–phosphorylated ROR-γt complex (PLA signals) [1]: significantly inhibited | AhR–ROR-γt complex (PLA signals) (AhR–ROR-γt complex): significantly inhibited

Source: PMC6766655, “AhR–ROR-γt complex is a therapeutic target for MAP4K3/GLK^highIL-17A^high subpopulation of systemic lupus erythematosus” (The FASEB Journal, 2019)
